Consider five molecules from article PMC6271227, “Biopharmaceutical Profiling of New Antitumor Pyrazole Derivatives” (Molecules, 2014).

A short description of data set [1]: Analysis by the general solubility equation (GSE): logP and melting point. The class given is physicochemical. Particulars: Mp >200 °C, moderate lipophilicity. The source says:
The general solubility equation (GSE) developed by Jain et al. provides a quantitative relationship between the three parameters: log Sw = 0.5 − 0.01(Mp − 25) − log P(1)
Starting from the general solubility equation, the poorly soluble drugs were sub-classified by the group of Bergström et al. in two types of molecules: “grease ball” and “brick dust” molecules. […] These compounds cannot form bonds with water molecules, and therefore their solubility is limited by the solvation process. By contrast, “brick dust” molecules are usually compounds with rather rigid and flat molecules with a high melting point (>190 °C) and moderate lipophilicity. Their solubility is being solid-state-limited being mainly restricted by the inability of the compound to dissociate from the crystal lattice and can generally be improved by different methods involving a disruption of the stable crystal lattice.

In another data set the test system is NCI 60 cancer lines. Also noted: method as in PMID 20728965. Particulars: cited from earlier work.
Where [2] appears, read: the 43 lines with logCI50 under −4.

Turning to `Cc1ccc(C(=O)NC(=S)Nc2cc(C)nn2-c2ccccc2)cc1` [BM5], the “type of poorly soluble molecule (grease ball / brick dust)” value (“type … (grease ball / brick dust)” for short) in data set [1] is “brick dust”. The same measure, in the same setting: then `Cc1cc(NC(=S)NC(=O)c2ccccc2)n[nH]1` [BT2], with “brick dust”. Turning to `O=C(NC(=S)Nc1cc(-c2ccc(Br)cc2)n[nH]1)c1ccccc1` [N-benzoyl-N'-[3-(4-bromophenyl)-1H-pyrazol-5-yl]-thiourea], the “number of the NCI 60 cancer lines with logCI50 under −4” value in the data set on NCI 60 cancer lines was 43. Besides, in the data set on NCI 60 cancer lines (setting [2]), the logCI50 average is given as −5.02 and the “logCI50 values (range)” value is listed as −4.12 to −5.75. As for `Cc1cc(NC(=S)NC(=O)c2ccc(Cl)cc2)n[nH]1` [BC2], in data set [1], the “type … (grease ball / brick dust)” value is on record as “brick dust”. Turning to `Cc1ccc(C(=O)NC(=S)Nc2cc(C)[nH]n2)cc1` [BM2], the “type … (grease ball / brick dust)” value in data set [1] is on record as “brick dust”.
